Tests used:
[1] = In vitro diffusion of IFN-α into human skin, flow-through diffusion cells, antiviral bioassay of skin homogenate; conditions: Biphasic lipid vesicles + acylated amino acid + IFN-α, 24 hours, n = 4
[2] = guinea pigs, lipid vesicle patch 24 hours, FIG. 1A, vs untreated control animals
[3] = system: Ki67 nuclear protein in proliferating cells; assay: Anti-proliferation assay on skin sections of human volunteers (Ki67 staining); assay type: in vivo; conditions: for Average % decrease of proliferative cells stained by anti-Ki67 antibody: 48 hours
Excerpt: Skin sections were also stained for Ki67 nuclear protein in proliferating cells using anti-M1B1 monoclonal antibodies (Rose et al., J. Clin. Pathol., 47:1010 (1994)) and visualized.
The number of stained cells were counted before and after treatment sections. The decreased number of stained cells were expressed as a percentage.

[4] = Immunohistochemistry of skin biopsies with anti-IFN-α antibodies; assay type: in vivo, human; conditions: 40 MU group, treated skin site vs untreated skin
Excerpt: The skin biopsy taken from the site of application of the biphasic lipid vesicle-containing transdermal patch of each test subject was processed for immunohistochemistry. A skin sample from a representative individual in the treatment group receiving 40 MU IFN-α was compared visually to a skin section of control, untreated skin after staining both samples with anti-IFN-α antibodies. […] This staining pattern was characteristic in all volunteers in this treatment group.
Sections 5 μm in thickness were cut and after antigen retrieval with 10 mM Na-citrate the sections were incubated with mouse anti-human interferon alpha antibody (1:2,000-1:5,000), which were in turn treated with a biotinylated rabbit anti-mouse secondary antibody and stained by the Avidin Biotin Complex (ABC) method.

2-5A synthetase = 2-5A synthetase enzyme activity in PBMC of treated human subjects; assay type: in vivo; conditions: all three treatment groups compared to their untreated controls (p<0.05)
Procedure: The experimental protocol is set forth in Example 5C.
Induction of 2-5A synthetase enzyme activity in peripheral blood mononuclear cells (PBMC) was used as an indication for the systemic delivery of IFN-α from biphasic delivery systems.
2-5A synthetase was determined by a ^125I-2-5A radioimmuno assay kit (Eiken Chemical Corp., Tokyo, Japan) using rabbit anti-human 2-5A antibody and goat antirabbit IgG as secondary antibody. Briefly, 2-5A synthetase was extracted from the samples by poly (I) poly (C) agarose for 10 min. After the addition of ATP solution (24 μg/mL) and incubation, 100 μL ^125I-2-5A was added, followed by the primary and secondary antibody. Radioactivity bound was determined by gamma counting. 2-5A synthetase is measured as pmol 2-5A produced/100 mL/h and subsequently expressed as nmole enzyme/mg protein 1 h in skin homogenate. All samples were run in duplicates.

[5] = Antiviral activity in serum of human subjects after transdermal patch; conditions: individual subjects in each treatment group (5, 15, 40 MU), before vs after 48 hours patch, FIGS. 4A-4C
[6] = human, in vivo
Procedure: The human subjects were divided randomly into three groups for treatment with a transdermal patch containing a lipid vesicle compositions at one of the three IFN-α concentrations. […] After treatment with the placebo, skin biopsies and blood samples were collected from each subject. In Phase II of the study, each subject was treated with a transdermal patch containing IFN-α entrapped in biphasic lipid vesicles at one of the three concentrations: 5 MU/g formulation/patch, 15 MU/g formulation/patch or 40 MU/g formulation/patch. After treatment for 48 hours, skin biopsies and blood samples were taken and analyzed. The biopsy samples were analyzed by immunohistochemistry, antiviral assay, ELISA and 2-5A synthetase assays. The blood samples were used to prepare serum for the antiviral and ELISA assays and to extract peripheral blood mononuclear cells for the 2-5A synthetase assay.
To determine IFN-α concentration in skin homogenates, Cytoscreen™ ELISA kit (Medicorp, Montreal, PQ) was used. The sensitivity of the assay is <25 pg/mL and the range of concentration is 0-500 pg/mL. The assay is specific for human IFN-α with no cross-reactivity with human IFNβ, IFNγ or IFNω. The results are expressed as pg IFN-α/mg skin.
Seventeen human volunteers were randomized into three treatment groups. […]

In the case of CCCCCCCCCCCC(=O)NCCCC[C@H](N)C(=O)O [MLL, Lauroyl lysine], the “Average Amount of IFN-α in skin” value [1] is reported as 250 ± 112 U/mg protein.
For CCCCCCCCCCCC(=O)NCCCC[C@H](NC(=O)CCCCCCCCCCC)C(=O)OC [PDM18, Nα lauroyl-Nε Lauroyl-L- lysine methyl ester], the “Average Amount of IFN-α in skin” value [1] was 84 ± 52 U/mg protein.
In the case of CCCCCCCCCCCCCCCCCCCC(=O)N[C@@H](CO)C(=O)O [PDM3, N-eicosanoyl-L-serine], the “Average Amount of IFN-α in skin” value [1] is reported as 2022 ± 1046 U/mg protein and the “serum antiviral activity / transdermal skin penetration (in words)” value [2] is reported as “significant increase”.
With CCCCCCCCCCCCCCCC(=O)N[C@@H](CCCCNC(=O)CCCCCCCCCCC)C(=O)OC [PDM17, Nα-palmitoyl-Nε Lauroyl-L- lysine methyl ester] the “Average Amount of IFN-α in skin” value [1] was 540 ± 239 U/mg protein.
In the case of IFN-α, the “Average % decrease of proliferative cells stained by anti-Ki67 antibody” value (“Average % decrease” below) ([3]; Dose 5 MU, compared to placebo treated skin) is reported as 14%, the anti-proliferative ratio ([3]; Dose 5 MU, proliferating cells in placebo treated skin / after treatment) is reported as 1.21 and the “Average % decrease” value ([3]; Dose 15 MU, compared to placebo treated skin) is reported as 10%. The anti-proliferative ratio ([3]; Dose 15 MU, proliferating cells in placebo treated skin / after treatment) was 1.32, the “Average % decrease” value ([3]; Dose 40 MU, compared to untreated skin) was 38% and the anti-proliferative ratio ([3]; Dose 40 MU, proliferating cells in untreated skin / after treatment) was 2. For the same compound, the “Ki67 staining of skin sections, anti-proliferative effect (in words)” value ([3]; skin treated with IFN-α) was “decreased staining”, the “IFN-α specific immunostaining of skin section (in words)” value [4] was “IFN-α specific immunostaining throughout the stratum corneum, epidermis and dermis” and the “induction in 2-5A synthetase enzyme activity (in words)” value (2-5A synthetase) was “significant induction”. For the same compound, the “serum antiviral activity (in words)” value [5] was “significant increase”, the “further increase in IFN-α levels in skin homogenates (in words)” value [6] was “No significant further increase” and the “increase in IFN-α levels in post-treatment skin homogenates (ELISA)” value [6] was 3 fold.
With CCCCCCCC(=O)N[C@H](C(=O)OC)[C@@H](C)O [PDM1, N-capryloyl-L-threonine methyl ester] the “Average Amount of IFN-α in skin” value [1] was 290 ± 172 U/mg protein.
For CCCCCCCCCCCCCCCCCCCC(=O)N[C@H](C(=O)O)[C@@H](C)O [PDM4, N-eicosanoyl threonine], the “Average Amount of IFN-α in skin” value [1] was 1707 ± 538 U/mg protein.

— patent publication US6656499B1, “Composition for transdermal and dermal administration of interferon-α” (PharmaDerm Laboratories, Ltd., priority 1999, dated 2003)
